Laboratory results taken from patent US11559585B2, “Conjugates of active pharmaceutical ingredients” (priority 2017, dated 2023).

Key:
OSC-3 cells = test: Cell viability with or without laser
Experimental: The synergistic effect of the chemotherapy and phototherapy of pPhD NPs was evaluated. OSC-3 cells were incubated with different concentrations of free photosensitizer (Phy), free chemotherapeutic drug (DOX) and pPhD NPs, respectively, then treated with or without laser (FIG. 11i).

U87-MG tumour cells = test: Cell viability (MTS) with or without laser; type: cell-based
Experimental: Cell viabilities evaluation. U87-MG cells were purchased from the American Type Culture Collection (ATCC, Manassas, Va., USA). Cells were cultured in RPMI 1640 Medium supplemented with 10% fetal bovine serum, 100 U/mL penicillin G, and […] streptomycin in a humidified 37° C. with 5% CO2. Cell viabilities were determined by MTS method. U87-MG cells were seeded in 96-well plates with a density of 5000 cells per well. The cells were incubated overnight until fully attached. The cells were treated with different concentrations of Pa, Ir, Pa and Ir mixture and PIN. 12 h later, the extracellular materials were washed off with PBS and replaced with fresh culture media. Laser treated group were exposed under a laser source of Omnilux New-U device (630 nm) for 3 min, and further incubated with non-laser treated cells for another 24 h. MTS was added to each well and further incubated for 2 h. The UV-vis absorbance at 495 nm with a reference wavelength of 630 nm was detected using a micro-plate reader using an SpectraMax M3 Multi-Mode Microplate Readers (Molecular Devices, LLC., CA, USA). Untreated cells in medium were used as controls. […]. Results were shown as the average cell viability [(ODtreat−ODblank)/(ODcontrol−ODblank)*100%] of triplicate wells.

A549 cells = test: Cytotoxicity assay (MTS) with or without light; type: cell-based, human; settings: upon light treatment (630 nm, 3 min)
Experimental: Cytotoxicity assay. Cell viabilities were determined by MTS method according to manufactory manual (Promega, Madison, Wis.). A549 cells were seeded in 96-wells plates with a density of 5000 cells per well. […] Six hours later, medium was replaced with fresh complete media followed by illumination with 630 nm light for 3 minutes. After additional 24 hours incubation, MTS working solution was added and the absorbance at 490 nm was evaluated by SpectraMax M3 microplate reader. Experiments were performed in triplicate, and 3 independent experiments were conducted.

[1] = Systemic toxicity of pPhD NPs (body weight, H&E); type: in vivo
Experimental: Tumor volume and body weight measurements. The body weights and tumor sizes were monitored three times a week, and the tumor volume was calculated by the following formula: Tumor volume=Length×(Width/2)^2.
H&E evaluation. All laser-treated tumors were collected and stained with hematoxylin and eosin (H&E) to evaluate the effect of phototherapy. The main organs of each group, including heart, liver, spleen, lung, kidney, small intestine, were collected for H&E assay to evaluate the toxicity of the materials.

[2] = test system: A549 human lung cancer cells; test: Cell uptake and intracellular ROS production; type: cell-based; settings: upon laser/light illumination
Experimental: Cell uptake and intracellular ROS production. […] After three times of washes with PBS, cells were incubated with 50 μM DCF-DA for 30 minutes. Samples were treated with or without light (630 nm, Omnilux New-U LED panel) for 1 minute, and intracellular […] (based on Pa fluorescence) and ROS production were analyzed by flow cytometry ([…], BD Bioscience, SD, CA).

pheophorbide a-hydrazide [Phy]
cytotoxicity (OSC-3 cells): no obvious cytotoxicity

pheophorbide A [Pa]
IC50 (U87-MG tumour cells; with laser treatment (630 nm, 3 min)): ~50 µM
cytotoxicity (U87-MG tumour cells; without laser): no obvious cytotoxicity
IC50 (A549 cells): 7 µM

COc1cccc2c1C(=O)c1c(O)c3c(c(O)c1C2=O)C[C@@](O)(C(=O)CO)C[C@@H]3O[C@H]1C[C@H](N)[C@H](O)[C@H](C)O1 [DOX, doxorubicin]
body weight changes / systemic toxicity ([1]; during treatment): obvious body weights loss
lesion of major organs (H&E) ([1]; mouse, in vivo): obvious liver and heart toxicity
cytotoxicity (OSC-3 cells): notable anti-tumor efficacy

CCc1c2c(nc3ccc(OC(=O)N4CCC(N5CCCCC5)CC4)cc13)-c1cc3c(c(=O)n1C2)COC(=O)[C@]3(O)CC [Ir, irinotecan]
intracellular ROS production [2]: did not produce intracellular ROS
